Calls of active or inactive are those of the source. The rule behind the calls is not given here. Where only a bound is given, the exact number is not on record here.

The source of these data is PubChem BioAssay AID602210 (Sanford-Burnham Center for Chemical Genomics, 2012).

This experiment in a line: modulators of 2-deoxyglucose-induced H9c2 death, dose response, myocardial damage modulator project, cell-based, ATPlite luminescence, rat, set 2 (AID 602210). The note with it: H9c2 rat cardiomyoblasts, 2-deoxyglucose-induced death, 2 h.
Consider `O=C(NCc1ccco1)C(c1ccccc1)N(C(=O)Cc1cccs1)c1ccccc1F` (stereo unspecified), for which the IC50 was 22.9 µM (inactive).
For the compound `CCOC(=O)c1c(C)[nH]c(C)c1C(=O)COc1ncnc2cc([N+](=O)[O-])ccc12`, the IC50 was 19.8 µM (inactive).
Consider `CC(C)c1cc(N2CCN(C(=O)c3ccco3)CC2)n2c(nc3ccccc32)c1C#N`, for which the IC50 is 44.7 µM (inactive).
On to `CC1Cc2ccccc2N1C(=O)c1cc2c(=O)n3ccccc3nc2n1C` (stereo unspecified), for which the half-inhibitory concentration (IC50) is 7.6 µM.
Regarding `COc1ccc(OC)c(N(CC(=O)Nc2cccnc2)S(=O)(=O)c2ccc(OC)c(OC)c2)c1`, the IC50 is 32.2 µM (inactive).
For `COc1cc(NC(=O)c2c(OC)cccc2OC)ccc1NC(=O)c1cc2ccccc2o1`, the IC50 is 13.4 µM (inactive).
`Cc1ccc(NC(=O)c2cc(=O)c3ccccc3o2)cc1S(=O)(=O)N1CCOCC1`: the IC50 is 29.6 µM (inactive).
Then `CCCNC(=O)c1c(N)n(-c2cccc(OC)c2)c2nc3ccccc3nc12`, with 14.9 µM (inactive).
Consider `C=CCOC(=O)C1=C[C@H](c2cn(C(C)=O)c3ccccc23)C[C@H](OCc2ccc(CO)cc2)O1`, for which the IC50 was 21.5 µM (inactive).
In the case of `COc1cc(-c2cnc3c(NC=O)cc(-c4cccnc4)cn23)cc(OC)c1OC` it was 36.2 µM (inactive).
For the compound `COc1ccc(-c2csc(NC(=O)CCCc3nc4ccccc4c(=O)[nH]3)n2)cc1OC`, the IC50 was 23.3 µM (inactive).
In the case of `COc1cc(/C=N/NC(=O)c2ccncc2)ccc1OC(=O)c1ccccc1Cl`, the IC50 was 15.8 µM (inactive).
Then `Cc1cccc(NC(=O)c2nc[nH]c2C(=O)NCC(=O)OCc2ccccc2)c1`, with > 79 µM (inactive); and `Cc1ccccc1C(C(=O)NCc1ccccc1)N(Cc1ccco1)C(=O)c1ccccn1` (stereo unspecified), with 45.6 µM (inactive); and `COc1ccccc1NC(=O)COc1ccc(/C=N/NC(=O)c2cccnc2)cc1`, with 21.1 µM (inactive).
As to `O=C(CCCN1C(=O)c2cccc3cccc(c23)C1=O)N1CCN(c2ccccc2O)CC1`, the IC50 was 19.5 µM (inactive).
Take `NS(=O)(=O)c1ccc(CCNC(=O)c2ccc(C#CC3(O)CCCCC3)cc2)cc1`: the IC50 was 4.94 µM.
On to `COc1cccc(/C=N/Nc2nc3ccccc3n3cnnc23)c1`, for which the IC50 is 3.49 µM.
For the compound `CCCOc1ccc2[nH]c(C(=O)N/N=C/c3cc(OC)c(OC)c(OC)c3)cc2c1`, the IC50 was > 79 µM (inactive).
As for `O=C/C(=C\Nc1ccccn1)c1nc2cc(Cl)ccc2o1`, the IC50 was > 79 µM (inactive).
As to `Cc1nc2c(c(=O)n1CCC1=CCCCC1)c1nc3ccccc3nc1n2/N=C/c1ccccc1`, the IC50 is 15.1 µM (inactive).
With `COc1cc(C(=O)Nc2cccc(-c3nnc(-c4ccco4)o3)c2)ccc1OC(C)=O`, the IC50 was 9.42 µM.
`c1ccc(N2CCOCC2)c(Nc2nc3ccccc3n3cnnc23)c1`: the IC50 is 33.1 µM (inactive).
For the compound `Cc1cc(C)c(S(=O)(=O)N2CCN(C(=O)c3cc(=O)[nH]c4ccccc34)CC2)c(C)c1`, the IC50 was 20 µM (inactive).
`CC(=NO)C1CCC2C3CCC4CC(=NO)CCC4(C)C3C(C)(O)CC12C` (stereo unspecified): the IC50 is 22 µM (inactive).
As for `O=C(c1cc(=O)[nH]c2ccccc12)N1CCN(S(=O)(=O)c2ccc(Cl)cc2)CC1`, the 50% inhibitory concentration (IC50) is 7.15 µM.
For the compound `Cn1c(C(=O)NCCc2ccsc2)cc2c(=O)n(C)c3ccccc3c21`, the IC50 was 11.3 µM (inactive).
Turning to `CC(=O)Nc1cccc(-c2cc(NC(C)=O)c3ncc(-c4ccccc4)n3c2)c1`, the IC50 was 12.2 µM (inactive).
Turning to `CCOC(=O)c1ccc(-c2ccc3ncnc(NCc4csc(C)n4)c3c2)o1`, the IC50 was > 79 µM (inactive).
Consider `O=C(NCCN1CCOCC1)c1cnn2c(-c3ccccc3)cc(-c3ccccc3)nc12`, for which the IC50 is 30.8 µM (inactive).
As to `CCOC(=O)C1=C(COC(=O)c2cc(OC)c(OC)c(OC)c2)NC(=O)NC1C` (stereo unspecified), the IC50 was 42.8 µM (inactive).
As to `CC(C)(C)OC(=O)NCc1ccc(NC(=O)c2nc[nH]c2C(=O)NCCCCCCNC(=O)c2[nH]cnc2C(=O)Nc2ccc(CNC(=O)OC(C)(C)C)cc2)cc1`, the IC50 is > 79 µM (inactive).
Then `O=C(NCC(=O)N(Cc1cccs1)C(C(=O)NC1CCCCC1)c1ccco1)c1ccco1` (stereo unspecified), with 18.5 µM (inactive); and `COc1cccc(-c2cnc3c(NC=O)cc(-c4cccc(C(=O)N(C)C)c4)cn23)c1`, with > 79 µM (inactive).
Regarding `CCC(=O)Nc1cccc(-c2nnc(-c3cccc(NC(=O)CC)c3)o2)c1`, the IC50 was > 79 µM (inactive).
In the case of `COc1ccc2o/c(=N/NC(=O)c3cccs3)c(C(N)=O)cc2c1` it was 21.5 µM (inactive); in that of `CCN1C(=O)/C(=C/c2nc3ccccc3c(=O)[nH]2)c2ccccc21`, 27.9 µM (inactive).
Turning to `c1cc2[nH]snc2c2nc(C3CC3)nc12`, the IC50 was 10.6 µM (inactive).
In the case of `COc1ccc(-c2cc(NC=O)c3ncc(-c4ccc(C(C)=O)cc4)n3c2)cn1`, the IC50 is 10.1 µM (inactive).
In the case of `COC(=O)c1cc2c(-c3ccccc3)cc3ccccn3c-2c1C(=O)OC`, the IC50 was 12.7 µM (inactive).
Consider `O=C(N/N=C/c1ccncc1)c1ccc(COc2cccc3cccnc23)cc1`, for which the IC50 was > 79 µM (inactive).
For `CNC(=O)COC(=O)/C=C/c1cn(-c2ccccc2)nc1-c1ccc(C)o1`, the IC50 is 14.6 µM (inactive).
As for `Cc1cc(C)c2c(N)c(C(=O)N/N=C/c3cccnc3)sc2n1`, the IC50 was 25.5 µM (inactive).
Turning to `O=C(CNC(=O)c1nc[nH]c1C(=O)NCc1ccccc1)OCc1ccccc1`, the 50% inhibitory concentration (IC50) is 5.21 µM.
Regarding `COc1ccc(OC)c(NC(=O)c2sc3ncnc(N4CCN(c5ccccn5)CC4)c3c2C)c1`, the IC50 was 12.1 µM (inactive).
In the case of `CC(C)CCN(C(=O)CNC(=O)c1ccco1)C(C(=O)NC1CCCCC1)c1ccco1` (stereo unspecified), the IC50 is > 79 µM (inactive).
With `O=C(O)c1ccc2c(c1)S(=O)(=O)c1cc(N3CCN(c4cnccn4)CC3)ccc1C2=O`, the IC50 was 18.6 µM (inactive).
In the case of `COc1cc(CCNc2ccc3nnc(-c4ccccc4)n3n2)cc(OC)c1OC`, the IC50 is 30.6 µM (inactive).
Turning to `Cc1cccc(NC(=O)c2nc[nH]c2C(=O)NCCCCCCNC(=O)c2[nH]cnc2C(=O)Nc2cccc(C)c2)c1`, the IC50 is > 79 µM (inactive).
In the case of `COc1ccc(C(=O)Nc2cc(C)nn2-c2nc3ccccc3[nH]2)c(OC)c1` it was 16.1 µM (inactive).
As to `O=C(CSc1nnc(Cc2cccs2)n1CCc1ccccc1)N1CCCc2ccccc21`, the IC50 was 13.9 µM (inactive).
Regarding `CCc1nnc(NC(=O)CCC(=O)N2CCN(C3c4ccccc4-c4ccccc43)CC2)s1`, the IC50 is 29.1 µM (inactive).
Consider `CCOC(=O)c1cnc(Nc2nc3ccccc3o2)nc1CSc1nnc(C)s1`, for which the IC50 is 27.3 µM (inactive).
Consider `O=C(N/N=C/c1ccccn1)c1[nH]c2ccc([N+](=O)[O-])cc2c1-c1ccccc1`, for which the IC50 is > 79 µM (inactive).
Regarding `COc1ccccc1-c1cc(NC=O)c2ncc(-c3cccc(C(C)=O)c3)n2c1`, the IC50 was > 79 µM (inactive).
For the compound `COc1ccc(-c2ccc3[nH]c4c(c3c2)CCN2C[C@H]3[C@H](C)ON(C)[C@H]3C[C@@H]42)cc1`, the IC50 was 29.8 µM (inactive).
In the case of `CCn1c(O)c(/C=N/N=C/c2ccccc2)c2ccc(C3=NNC(=O)CC3)cc21` it was 10.7 µM (inactive).
Then `CCOc1ccc2[nH]c(=O)c(CN(Cc3nnnn3Cc3ccco3)C3CCCCC3)cc2c1`, with 9.18 µM; and `COc1ccc(-c2nc(NC(=O)c3ccc(OCC(=O)N4CCOCC4)c(OC)c3)sc2C)cc1`, with 23.7 µM (inactive); and `COCCn1cnc2c(c1=O)c1nc3ccccc3nc1n2/N=C/c1cccc(OC)c1`, with > 79 µM (inactive).
On to `NC(=O)COc1ccc2oc(=O)cc(-c3cc4ccccc4o3)c2c1`, for which the IC50 was 17.2 µM (inactive).
Then `COc1cc(/C=c2\s/c(=C(/C#N)C(=O)N3CCCC3)n(-c3ccccc3)c2=O)ccc1O`, with > 79 µM (inactive).
Regarding `O=C(c1cc(-c2cccnc2)nc2ccc(Br)cc12)N1CCN(c2ncccn2)CC1`, the IC50 was 16.2 µM (inactive).
Then `COc1cccc(-c2cnc3c(NC(C)=O)cc(-c4cc(OC)c(OC)c(OC)c4)cn23)c1`, with > 79 µM (inactive); and `COCCn1ccc2c(OCC(=O)Nc3ccccc3OC)cccc2c1=O`, with 22.1 µM (inactive).
With `CC(C)(C)C(=O)Nc1cccc(-c2nnc(-c3cccc(NC(=O)C(C)(C)C)c3)o2)c1`, the IC50 was 10.7 µM (inactive).
In the case of `Cc1cc(NC(=O)c2cccs2)cc(-c2nc3ncccc3o2)c1O`, the IC50 was > 79 µM (inactive).
For the compound `COc1ccccc1NC(=O)CSc1ccc2nnc(-c3ccc(C)cc3)n2n1`, the IC50 is > 79 µM (inactive).
`O=C(Nc1cccnc1)c1sc(Nc2ccccc2)nc1-c1ccccc1`: the IC50 was > 79 µM (inactive).
Turning to `COc1ccc(-c2oc3c(OC)c(OC)c(OC)c(O)c3c(=O)c2OC)cc1OC`, the IC50 was > 79 µM (inactive).
In the case of `COc1ccc(-c2cc(C(=O)N(C)Cc3nc4ccccc4c(=O)[nH]3)c3ccccc3n2)cc1OC` it was 10.3 µM (inactive); in that of `COc1cccc(-c2cnc3c(NC=O)cc(-c4cc(C)c(O)c(C)c4)cn23)c1`, 18.9 µM (inactive); in that of `COc1cc2c(C#CCCO)c(-c3ccsc3)oc(=O)c2cc1OC`, 6.34 µM.
With `CCOC(=O)C1CCCN(C(=O)CCC(=O)Nc2ccc3nc(N4CCOCC4)cc(C)c3c2)C1` (stereo unspecified), the IC50 is 38.8 µM (inactive).
For `CCOC(=O)C1=C(CC)Nc2ccccc2N=C1NC(=O)c1ccc(S(=O)(=O)N(C)C)cc1`, the IC50 is > 79 µM (inactive).
Turning to `NC(=O)c1oc2ccccc2c1NC(=O)c1ccco1`, the IC50 is 32.2 µM (inactive).
Regarding `COC(=O)c1[nH]c2ccccc2c1NC(=O)CNC1CCCCC1`, the IC50 was 13.5 µM (inactive).
For the compound `COc1ccc(CCn2c(=O)c3cccnc3n(Cc3ccc([N+](=O)[O-])cc3)c2=O)cc1OC`, the IC50 is 14.5 µM (inactive).
In the case of `CCN(CC(=O)Nc1ccc(OC)cc1)C(=O)c1cc(-c2cccs2)nn1-c1ccccc1` it was 7.55 µM; in that of `CCN(CC)C(=O)c1[nH]cnc1C(=O)NCC(=O)OCc1ccccc1`, 8.7 µM.
For the compound `Cc1cccc(NC(=O)c2oc3ccc(S(=O)(=O)N4CCOCC4)cc3c2C)c1C`, the IC50 was 11 µM (inactive).
